Measurements from ChEMBL document CHEMBL2040726, “The effects of aminoguanidine on retinopathy in STZ-induced diabetic rats” (Bioorg Med Chem Lett, 2012).
Calls of active or inactive are those of the source. The calls are words filed in the database; no cut-off is given here.

Key:
[1] = tested on: Rattus norvegicus; assay: Toxicity in normal Sprague-Dawley rat assessed as effect on retinal pericyte cell count at 50 mg/kg/day administered with drinking water after 3 months by hematoxylin and eosin staining; type: organism-based; settings: in vivo
[2] = tested on: Rattus norvegicus; assay: Antiretinopathic activity in Sprague-Dawley rat streptozotocin-induced diabetic model assessed as effect on retinal pericyte cell count at 50 mg/kg/day administered with drinking water after 3 months by hematoxylin and eosin staining; type: functional, organism-based
[3] = tested on: Rattus norvegicus; assay: Toxicity in normal Sprague-Dawley rat assessed as effect on retinal pericyte cell count at 50 mg/kg/day administered with drinking water after 6 months by hematoxylin and eosin staining; type: organism-based; settings: in vivo
[4] = tested on: Rattus norvegicus; assay: Toxicity in normal Sprague-Dawley rat assessed as effect on ratio of retinal endothelial cell count to pericyte cell count at 50 mg/kg/day administered with drinking water after 3 months by hematoxylin and eosin staining (reference value: 2.89 +/- 0.76); type: organism-based; settings: in vivo
[5] = tested on: Rattus norvegicus; assay: Antidiabetic activity in Sprague-Dawley rat streptozotocin-induced diabetic model assessed as reduction of body weight at 50 mg/kg/day administered with drinking water after 3 months (reference value: 206.00 +/- 52.59 g); type: functional
[6] = tested on: Rattus norvegicus; assay: Effect on fasting blood glucose level in normal Sprague-Dawley rat 50 mg/kg/day administered with drinking water after 3 months (reference value: 5.68 +/- 0.96 mmol/L); type: functional
[7] = tested on: Rattus norvegicus; assay: Toxicity in normal Sprague-Dawley rat assessed as reduction of body weight at 50 mg/kg/day administered with drinking water after 6 months (reference value: 547.50 +/- 36.23 g); type: organism-based; settings: in vivo
[8] = tested on: Rattus norvegicus; assay: Antidiabetic activity in Sprague-Dawley rat streptozotocin-induced diabetic model assessed as reduction of fasting blood glucose level at 50 mg/kg/day administered with drinking water after 6 months (reference value: 20.20 +/- 5.51 mmol/L); type: functional
[9] = tested on: Rattus norvegicus; assay: Antiretinopathic activity in Sprague-Dawley rat streptozotocin-induced diabetic model assessed as reduction of retinal advanced glycated end products positive area at 50 mg/kg/day administered with drinking water after 6 months by immunohistochemistry analysis (reference value: 78.70 +/- 7.11%); type: functional; parameters: scale not given: the % may be the effect or the level left
[10] = tested on: Rattus norvegicus; assay: Antiretinopathic activity in Sprague-Dawley rat streptozotocin-induced diabetic model assessed as swollen of retinal pericyte mitochondria and endothelial cells at 50 mg/kg/day administered with drinking water after 6 months by transmission electron microscopic analysis; type: functional, organism-based; settings: Endothelial cell
[11] = tested on: Rattus norvegicus; assay: Antiretinopathic activity in Sprague-Dawley rat streptozotocin-induced diabetic model assessed as ratio of retinal endothelial cell count to pericyte cell count at 50 mg/kg/day administered with drinking water after 6 months by hematoxylin and eosin staining (reference value: 10.91 +/- 3.34); type: functional
[12] = tested on: Rattus norvegicus; assay: Antidiabetic activity in Sprague-Dawley rat streptozotocin-induced diabetic model assessed as reduction of body weight at 50 mg/kg/day administered with drinking water after 6 months (reference value: 254.50 +/- 123.03 g); type: functional
[13] = tested on: Rattus norvegicus; assay: Antiretinopathic activity in Sprague-Dawley rat streptozotocin-induced diabetic model assessed as effect on retinal pericyte cell count at 50 mg/kg/day administered with drinking water after 6 months by hematoxylin and eosin staining; type: functional, organism-based
[14] = tested on: Rattus norvegicus; assay: Antiretinopathic activity in Sprague-Dawley rat streptozotocin-induced diabetic model assessed as effect on retinal endothelial cell count at 50 mg/kg/day administered with drinking water after 3 months by hematoxylin and eosin staining; type: functional, organism-based
[15] = tested on: Rattus norvegicus; assay: Toxicity in normal Sprague-Dawley rat assessed as retinal advanced glycated end products positive area at 50 mg/kg/day administered with drinking water after 6 months by immunohistochemistry analysis (reference value: 0.75 +/- 0.94%); type: organism-based; settings: in vivo
[16] = tested on: Rattus norvegicus; assay: Toxicity in normal Sprague-Dawley rat assessed as effect on retinal endothelial cell count at 50 mg/kg/day administered with drinking water after 3 months by hematoxylin and eosin staining; type: organism-based; settings: in vivo
[17] = tested on: Rattus norvegicus; assay: Effect on fasting blood glucose level in normal Sprague-Dawley rat 50 mg/kg/day administered with drinking water after 6 months (reference value: 5.51 +/- 1.06 mmol/L); type: functional
[18] = tested on: Rattus norvegicus; assay: Antiretinopathic activity in Sprague-Dawley rat streptozotocin-induced diabetic model assessed as effect on retinal endothelial cell count at 50 mg/kg/day administered with drinking water after 6 months by hematoxylin and eosin staining; type: functional, organism-based
[19] = tested on: Rattus norvegicus; assay: Antiretinopathic activity in Sprague-Dawley rat streptozotocin-induced diabetic model assessed as reduction of retinal advanced glycated end products positive area at 50 mg/kg/day administered with drinking water after 3 months by immunohistochemistry analysis (reference value: 69.20 +/- 10.75%); type: functional; parameters: scale not given: the % may be the effect or the level left
[20] = tested on: Rattus norvegicus; assay: Antidiabetic activity in Sprague-Dawley rat streptozotocin-induced diabetic model assessed as reduction of fasting blood glucose level at 50 mg/kg/day administered with drinking water after 3 months (reference value: 20.99 +/- 4.13 mmol/L); type: functional
[21] = tested on: Rattus norvegicus; assay: Antiretinopathic activity in Sprague-Dawley rat streptozotocin-induced diabetic model assessed as increase of retinal electron density of basement membrane at 50 mg/kg/day administered with drinking water after 6 months by transmission electron microscopic analysis; type: functional, organism-based
[22] = tested on: Rattus norvegicus; assay: Toxicity in normal Sprague-Dawley rat assessed as effect on retinal endothelial cell count at 50 mg/kg/day administered with drinking water after 6 months by hematoxylin and eosin staining; type: organism-based; settings: in vivo
[23] = tested on: Rattus norvegicus; assay: Toxicity in normal Sprague-Dawley rat assessed as retinal advanced glycated end products positive area at 50 mg/kg/day administered with drinking water after 3 months by immunohistochemistry analysis (reference value: 0.64 +/- 0.87%); type: organism-based; settings: in vivo
[24] = tested on: Rattus norvegicus; assay: Toxicity in normal Sprague-Dawley rat assessed as reduction of body weight at 50 mg/kg/day administered with drinking water after 3 months (reference value: 561.00 +/- 32.04 g); type: organism-based; settings: in vivo
[25] = tested on: Rattus norvegicus; assay: Toxicity in normal Sprague-Dawley rat assessed as effect on ratio of retinal endothelial cell count to pericyte cell count at 50 mg/kg/day administered with drinking water after 6 months by hematoxylin and eosin staining (reference value: 3.58 +/- 0.61); type: organism-based; settings: in vivo
[26] = tested on: Rattus norvegicus; assay: Antiretinopathic activity in Sprague-Dawley rat streptozotocin-induced diabetic model assessed as ratio of retinal endothelial cell count to pericyte cell count at 50 mg/kg/day administered with drinking water after 3 months by hematoxylin and eosin staining (reference value: 3.25 +/- 0.27); type: functional

Q: `N=C(N)NN` [PIMAGEDINE] was tested. Which Activity [1] did it give?
A: Its Activity is “Non-toxic”.

Q: What about the Activity [2] of the same molecule?
A: Its Activity is “inactive”.

Q: What about the Activity [3] of the same molecule?
A: The Activity was “Non-toxic”.

Q: What about the Ratio [4] of the same molecule?
A: Its Ratio is 2.95.

Q: And the Activity [5]?
A: Its Activity is 219.5 g.

Q: What about the Activity [6] of the same molecule?
A: Its Activity is 5.23 mmol/L.

Q: What about the Activity [7] of the same molecule?
A: Its Activity is 553 g.

Q: And the Activity [8]?
A: The Activity was 21.74 mmol/L.

Q: What about the Activity [9] of the same molecule?
A: Its Activity is 9.16%.

Q: What about the Activity [10] of the same molecule?
A: The Activity was “Active”.

Q: And the Ratio [11]?
A: Its Ratio is 3.71.

Q: What about the Activity [12] of the same molecule?
A: Its Activity is 284.5 g.

Q: And the Activity [13]?
A: Its Activity is “inactive”.

Q: What about the Activity [14] of the same molecule?
A: Its Activity is “inactive”.

Q: What about the Activity [15] of the same molecule?
A: The Activity was 3.27%.

Q: What about the Activity [16] of the same molecule?
A: The Activity was “Non-toxic”.

Q: What about the Activity [17] of the same molecule?
A: The Activity was 5.07 mmol/L.

Q: What about the Activity [18] of the same molecule?
A: Its Activity is “inactive”.

Q: What about the Activity [19] of the same molecule?
A: The Activity was 12.71%.

Q: What about the Activity [20] of the same molecule?
A: Its Activity is 21.89 mmol/L.

Q: And the Activity [21]?
A: Its Activity is “inactive”.

Q: What about the Activity [22] of the same molecule?
A: Its Activity is “Non-toxic”.

Q: What about the Activity [23] of the same molecule?
A: Its Activity is 1.33%.

Q: And the Activity [24]?
A: The Activity was 536.5 g.

Q: What about the Ratio [25] of the same molecule?
A: Its Ratio is 3.46.

Q: What about the Ratio [26] of the same molecule?
A: Its Ratio is 3.06.
